Measured values published in patent US8680259B2, “Method and compositions for the identification of agents that have a potential effect against chronic inflammatory diseases” (Universität Leipzig, priority 2010, dated 2014).

Tests used:
primary CD14+ monocytes = assay: IL-1β production of monocytes stimulated with increased extracellular Ca2+ plus TLR ligand; format: cell-based, human
Method: FIGS. 3c and 3d show IL-1β release of primary CD14^+ monocytes in response to increasing extracellular calcium concentration alone (c) or to increased [Ca^2+] in combination with LPS (100 ng/ml) (d) after 16 h of stimulation. The bar underneath the x axis represents the physiological range of the extracellular ionized Ca^2+ concentration (1.2 mM).
The following TLR ligands (human TLR1-9 Agonist Kit, InvivoGen) were used at the following concentrations: TLR1/2 agonist—Pam3CSK4 (1 μg/ml), TLR2 agonist—heat-killed preparation of Listeria monocytogenes (10^8 cells/ml), TLR3 agonist—Poly(I:C) (10 μg/ml), TLR4 agonist—E. coli K12 LPS (100 ng/ml), TLR5 agonist—S. typhimurium flagellin (1 μg/ml), TLR6/2 agonist—FSL1 (1 μg/ml), TLR7 agonist—Imiquimod (1 μg/ml), TLR8 agonist—ssRNA40 (1 μg/ml) and TLR9 agonist—CpG ODN2006 (5 μM). […]
In all experiments shown in FIGS. 3 and 4, IL-1β concentrations were determined in the supernatant by ELISA.
Human and murine IL-1β were measured by commercially available enzyme-immunoassay following the manufacturer's protocol. […]
LPS (Escherichia coli 0111:B4 ultrapure, 100 ng/ml, Invivogen) was used at a concentration of 100 ng/ml. […] Final Ca^2+ ion concentrations in the media were measured after anaerobic sampling (sealed blood gas syringes were completely filled under an CO2 atmosphere, and were closed with caps to avoid loss of CO2) on an ABL 730 (Radiometer). […]

GPRC6A = GPRC6A (Mus musculus, UniProt Q8K4Z6); details: wild type mice; Aluminum Lactate 0.3 mg/100 ml with Carrageenan 1 g/100 ml vs Carrageenan alone; p<0.001
Chain of GPRC6A (Q8K4Z6 21-928): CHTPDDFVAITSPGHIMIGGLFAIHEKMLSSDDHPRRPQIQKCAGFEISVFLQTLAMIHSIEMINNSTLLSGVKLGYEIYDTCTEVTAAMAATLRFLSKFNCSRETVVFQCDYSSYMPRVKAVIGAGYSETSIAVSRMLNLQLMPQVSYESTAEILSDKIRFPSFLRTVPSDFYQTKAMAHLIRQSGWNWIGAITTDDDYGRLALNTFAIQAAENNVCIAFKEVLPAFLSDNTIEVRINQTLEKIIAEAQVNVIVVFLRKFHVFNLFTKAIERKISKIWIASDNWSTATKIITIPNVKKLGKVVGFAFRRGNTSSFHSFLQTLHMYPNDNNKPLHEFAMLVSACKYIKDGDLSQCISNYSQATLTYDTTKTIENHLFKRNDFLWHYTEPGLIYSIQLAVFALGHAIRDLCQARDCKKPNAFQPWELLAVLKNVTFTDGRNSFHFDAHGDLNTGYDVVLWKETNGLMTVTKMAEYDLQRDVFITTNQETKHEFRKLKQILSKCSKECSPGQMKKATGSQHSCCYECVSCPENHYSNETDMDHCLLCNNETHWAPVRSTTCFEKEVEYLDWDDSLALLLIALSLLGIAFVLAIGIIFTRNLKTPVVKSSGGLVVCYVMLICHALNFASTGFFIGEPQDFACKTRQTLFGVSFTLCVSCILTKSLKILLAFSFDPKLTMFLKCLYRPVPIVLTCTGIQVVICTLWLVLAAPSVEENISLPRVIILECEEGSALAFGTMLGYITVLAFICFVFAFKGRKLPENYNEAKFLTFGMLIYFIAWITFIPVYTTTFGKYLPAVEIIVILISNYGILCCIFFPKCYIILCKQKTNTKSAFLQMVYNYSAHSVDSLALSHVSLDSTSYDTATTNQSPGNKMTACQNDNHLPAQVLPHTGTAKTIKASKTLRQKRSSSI

Molecule: Tenascin: endogenous TLR ligand, extracellular matrix glycoprotein; Tenascin-C from Millipore
- IL-1β production (primary CD14+ monocytes; endogenous TLR ligand in combination with increased extracellular Ca2+ concentrations): comparable to the Ca^2+ plus LPS induced levels

Molecule: Aluminum Lactate
- footpad swelling (GPRC6A): amplification of Carrageenan induced footpad swelling

Molecule: [Ca+2].[Cl-].[Cl-] [Ca^2+, CaCl2]
- IL-1β production, factor of increase in comparison to endotoxin (LPS) alone (primary CD14+ monocytes; extracellular ionized Ca2+ in combination with LPS): 20
